Data from patent publication US11142525B2 (Pfizer Inc., priority 2018, dated 2021).

Legend:
[1] = molecular target: human full-length recombinant HPK1 (Homo sapiens (Human), UniProt Q92918); experiment: HPK1 biochemical enzyme assay, microfluidic mobility shift assay (MSA); conditions: HPK1 mobility shift assay; read-out: HPK1 Enzyme Assay_Ki
[2] = test system: phospho-SLP-76 (Ser376) in Jurkat cells; experiment: Phospho-SLP-76 (Ser376) Homogeneous Time Resolved Fluorescence (HTRF) assay in Jurkat cells; type: cell-based; conditions: Homo sapiens, Phospho-SLP-76 (Ser376) HTRF, anti-CD3 stimulation, read-out: SLP76 Assay_IC50
How it was run: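 Phospho-SLP-76 in lysates was read by sandwich HTRF and IC50 derived by four-parameter nonlinear regression. Before lysis, cells had received compound for 30 min (11-point, 3-fold series from 10 μM, 0.1% DMSO), followed by anti-CD3 F(ab)2 complex (200 μg/mL, 15 min, 37 °C).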

Sequence of human full-length recombinant HPK1 (Q92918 whole entry): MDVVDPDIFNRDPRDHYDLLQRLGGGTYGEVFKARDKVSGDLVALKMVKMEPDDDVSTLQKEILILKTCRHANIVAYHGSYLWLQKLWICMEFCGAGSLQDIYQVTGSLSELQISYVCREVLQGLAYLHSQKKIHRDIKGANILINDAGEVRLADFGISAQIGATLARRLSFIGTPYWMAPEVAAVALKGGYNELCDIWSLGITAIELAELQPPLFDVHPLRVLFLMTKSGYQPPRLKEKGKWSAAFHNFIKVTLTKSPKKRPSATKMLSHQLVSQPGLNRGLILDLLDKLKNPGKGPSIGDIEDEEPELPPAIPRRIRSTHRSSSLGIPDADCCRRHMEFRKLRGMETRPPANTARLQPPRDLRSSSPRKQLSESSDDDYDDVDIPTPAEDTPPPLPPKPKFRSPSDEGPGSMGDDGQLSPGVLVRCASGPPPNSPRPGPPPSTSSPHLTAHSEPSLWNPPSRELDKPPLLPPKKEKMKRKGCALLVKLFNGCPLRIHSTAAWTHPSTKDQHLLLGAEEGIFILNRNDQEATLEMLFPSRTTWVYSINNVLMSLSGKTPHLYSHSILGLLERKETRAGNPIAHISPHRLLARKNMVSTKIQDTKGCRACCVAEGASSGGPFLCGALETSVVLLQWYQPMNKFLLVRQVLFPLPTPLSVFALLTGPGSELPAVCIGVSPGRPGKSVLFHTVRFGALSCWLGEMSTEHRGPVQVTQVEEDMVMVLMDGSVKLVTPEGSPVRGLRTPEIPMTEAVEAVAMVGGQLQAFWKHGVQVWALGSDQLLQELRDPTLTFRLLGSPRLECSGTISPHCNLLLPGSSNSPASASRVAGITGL

Compound	Ki [1]	IC50 [2]
CC1(c2cc3c(c(CN)n2)CN(c2cccc(N4C(=O)OC[C@@H]4CF)n2)C3=O)CC1 [Example 85, 4-(aminomethyl)-2-{6-[(4R)-4-(fluoromethyl)-2-oxo-1,3-oxazolidin-3-yl]pyridin-2-yl}-6-(1-methylcyclopropyl)-2,3-dihydro-1H-pyrrolo[3,4-c]pyridin-1-one]	1.11 nM	345 nM
NCc1nc(C2CC2)cc2c1CN(c1cccc(N3C(=O)OC[C@@H]3CF)n1)C2=O [Example 86, 4-(aminomethyl)-6-cyclopropyl-2-{6-[(4R)-4-(fluoromethyl)-2-oxo-1,3-oxazolidin-3-yl]pyridin-2-yl}-2,3-dihydro-1H-pyrrolo[3,4-c]pyridin-1-one]	3.04 nM	652 nM
CNCc1nc(C2CC2)cc2c1CN(c1cccc(N3C(=O)OC[C@@H]3CF)n1)C2=O [Example 87, 6-cyclopropyl-2-{6-[(4R)-4-(fluoromethyl)-2-oxo-1,3-oxazolidin-3-yl]pyridin-2-yl}-4-[(methylamino)methyl]-2,3-dihydro-1H-pyrrolo[3,4-c]pyridin-1-one]	1.44 nM	299 nM
CCN(CC)c1cc2c(c(CN(C)C)n1)CN(c1cccc(-c3nncn3CC)n1)C2=O [Example 88, 6-(diethylamino)-4-[(dimethylamino)methyl]-2-[6-(4-ethyl-4H-1,2,4-triazol-3-yl)pyridin-2-yl]-2,3-dihydro-1H-pyrrolo[3,4-c]pyridin-1-one]	2.52 nM	2680 nM
CCCn1cnnc1-c1cccc(N2Cc3c(cc(C4(C)CC4)nc3CN)C2=O)n1 [Example 90, 4-(aminomethyl)-6-(1-methylcyclopropyl)-2-[6-(4-propyl-4H-1,2,4-triazol-3-yl)pyridin-2-yl]-2,3-dihydro-1H-pyrrolo[3,4-c]pyridin-1-one]	1.46 nM	694 nM
CNCc1nc(C2(C)CC2)cc2c1CN(c1cccc(N3C(=O)OC[C@@H]3CF)n1)C2=O [Example 91, 2-{6-[(4R)-4-(fluoromethyl)-2-oxo-1,3-oxazolidin-3-yl]pyridin-2-yl}-4-[(methylamino)methyl]-6-(1-methylcyclopropyl)-2,3-dihydro-1H-pyrrolo[3,4-c]pyridin-1-one]	0.33 nM	257 nM
CCn1cnnc1-c1cccc(N2Cc3c(cc(N4CCC4)nc3CNC)C2=O)n1 [Example 92, 6-(azetidin-1-yl)-2-[6-(4-ethyl-4H-1,2,4-triazol-3-yl)pyridin-2-yl]-4-[(methylamino)methyl]-2,3-dihydro-1H-pyrrolo[3,4-c]pyridin-1-one]	0.43 nM	226 nM
CCCn1cnnc1-c1cccc(N2Cc3c(cc(N4CCC4)nc3CNC)C2=O)n1 [Example 93, 6-(azetidin-1-yl)-4-[(methylamino)methyl]-2-[6-(4-propyl-4H-1,2,4-triazol-3-yl)pyridin-2-yl]-2,3-dihydro-1H-pyrrolo[3,4-c]pyridin-1-one]	0.42 nM	713 nM
CCCn1cnnc1-c1cccc(N2Cc3c(cc(C4(C)CC4)nc3CNC)C2=O)n1 [Example 94, 4-[(methylamino)methyl]-6-(1-methylcyclopropyl)-2-[6-(4-propyl-4H-1,2,4-triazol-3-yl)pyridin-2-yl]-2,3-dihydro-1H-pyrrolo[3,4-c]pyridin-1-one]	0.34 nM	280 nM
CCn1cnnc1-c1cccc(N2Cc3c(cc(C4(C)CC4)nc3CNC)C2=O)n1 [Example 95, 2-[6-(4-ethyl-4H-1,2,4-triazol-3-yl)pyridin-2-yl]-4-[(methylamino)methyl]-6-(1-methylcyclopropyl)-2,3-dihydro-1H-pyrrolo[3,4-c]pyridin-1-one]	0.51 nM	168 nM
CCN(CC)c1cc2c(c(CNC)n1)CN(c1cccc(-c3cnc(C)n3CC)n1)C2=O [Example 96, 6-(diethylamino)-2-[6-(1-ethyl-2-methyl-1H-imidazol-5-yl)pyridin-2-yl]-4-[(methylamino)methyl]-2,3-dihydro-1H-pyrrolo[3,4-c]pyridin-1-one]	0.4 nM	142 nM
CCN(CC)c1cc2c(c(CNC)n1)CN(c1cccc(-c3nnc(C)n3CC)n1)C2=O [Example 97, 6-(diethylamino)-2-[6-(4-ethyl-5-methyl-4H-1,2,4-triazol-3-yl)pyridin-2-yl]-4-[(methylamino)methyl]-2,3-dihydro-1H-pyrrolo[3,4-c]pyridin-1-one]	0.34 nM	186 nM
CCN(c1cc2c(c(CNC)n1)CN(c1cccc(N3C(=O)OC[C@@H]3CF)n1)C2=O)C(C)C [Example 98, 6-[ethyl(propan-2-yl)amino]-2-{6-[(4R)-4-(fluoromethyl)-2-oxo-1,3-oxazolidin-3-yl]pyridin-2-yl}-4-[(methylamino)methyl]-2,3-dihydro-1H-pyrrolo[3,4-c]pyridin-1-one]	0.96 nM	514 nM
CCn1cnnc1-c1cccc(N2Cc3c(cc(C4CCC4)nc3CNC)C2=O)n1 [Example 101, 6-cyclobutyl-2-[6-(4-ethyl-4H-1,2,4-triazol-3-yl)pyridin-2-yl]-4-[(methylamino)methyl]-2,3-dihydro-1H-pyrrolo[3,4-c]pyridin-1-one]	0.94 nM	217 nM
CCCn1cnnc1-c1cccc(N2Cc3c(cc(C4CCC4)nc3CNC)C2=O)n1 [Example 103, 6-cyclobutyl-4-[(methylamino)methyl]-2-[6-(4-propyl-4H-1,2,4-triazol-3-yl)pyridin-2-yl]-2,3-dihydro-1H-pyrrolo[3,4-c]pyridin-1-one]	1.15 nM	199 nM
CCN(c1cc2c(c(CNC)n1)CN(c1cccc(-c3nncn3C)n1)C2=O)C(C)C [Example 108, 6-[ethyl(propan-2-yl)amino]-4-[(methylamino)methyl]-2-[6-(4-methyl-4H-1,2,4-triazol-3-yl)pyridin-2-yl]-2,3-dihydro-1H-pyrrolo[3,4-c]pyridin-1-one]	3.7 nM	583 nM
CCn1cnnc1-c1cccc(N2Cc3c(cc(N4[C@H](C)CC[C@H]4C)nc3CN)C2=O)n1 [Example 110, 4-(aminomethyl)-6-[(2R,5R)-2,5-dimethylpyrrolidin-1-yl]-2-[6-(4-ethyl-4H-1,2,4-triazol-3-yl)pyridin-2-yl]-2,3-dihydro-1H-pyrrolo[3,4-c]pyridin-1-one]	0.32 nM	86 nM

The next compounds have a lower Ki [1] than those just listed; values first:

Ki [1]	IC50 [2]	Compound
0.14 nM	138 nM	CCN(c1cc2c(c(CNC)n1)CN(c1cccc(-c3nncn3CC)n1)C2=O)C(C)C [Example 84, 6-[ethyl(propan-2-yl)amino]-2-[6-(4-ethyl-4H-1,2,4-triazol-3-yl)pyridin-2-yl]-4-[(methylamino)methyl]-2,3-dihydro-1H-pyrrolo[3,4-c]pyridin-1-one]
< 0.08 nM	54 nM	CCn1cnnc1-c1cccc(N2Cc3c(cc(N(C)C(C)C)nc3CN)C2=O)n1 [Example 89, 4-(aminomethyl)-2-[6-(4-ethyl-4H-1,2,4-triazol-3-yl)pyridin-2-yl]-6-[methyl(propan-2-yl)amino]-2,3-dihydro-1H-pyrrolo[3,4-c]pyridin-1-one]
< 0.05 nM	34 nM	CC(C)N(C)c1cc2c(c(CN)n1)CN(c1cccc(N3C(=O)OC[C@@H]3C)n1)C2=O [Example 100, 4-(aminomethyl)-2-{6-[(4S)-4-methyl-2-oxo-1,3-oxazolidin-3-yl]pyridin-2-yl}-6-[methyl(propan-2-yl)amino]-2,3-dihydro-1H-pyrrolo[3,4-c]pyridin-1-one]
0.29 nM	74 nM	[2H]C([2H])([2H])C([2H])([2H])N(c1cc2c(c(CNC)n1)CN(c1cccc(-c3nncn3CC)n1)C2=O)C([2H])([2H])C([2H])([2H])[2H] [Example 102, 6-{bis[(pentadeuterio)ethyl]amino}-2-[6-(4-ethyl-4H-1,2,4-triazol-3-yl)pyridin-2-yl]-4-[(methylamino)methyl]-2,3-dihydro-1H-pyrrolo[3,4-c]pyridin-1-one]
0.13 nM	51 nM	CNCc1nc(N2CCC[C@H]2C)cc2c1CN(c1cccc(-c3nncn3C(C)C)n1)C2=O [Example 104, 4-[(methylamino)methyl]-6-[(2R)-2-methylpyrrolidin-1-yl]-2-{6-[4-(propan-2-yl)-4H-1,2,4-triazol-3-yl]pyridin-2-yl}-2,3-dihydro-1H-pyrrolo[3,4-c]pyridin-1-one]
0.21 nM	64 nM	CCCn1cnnc1-c1cccc(N2Cc3c(cc(N4[C@H](C)CC[C@H]4C)nc3CNC)C2=O)n1 [Example 105, 6-[(2R,5R)-2,5-dimethylpyrrolidin-1-yl]-4-[(methylamino)methyl]-2-[6-(4-propyl-4H-1,2,4-triazol-3-yl)pyridin-2-yl]-2,3-dihydro-1H-pyrrolo[3,4-c]pyridin-1-one]
0.26 nM	83 nM	CCn1cnnc1-c1cccc(N2Cc3c(cc(N4[C@H](C)CC[C@H]4C)nc3CNC)C2=O)n1 [Example 106, 6-[(2R,5R)-2,5-dimethylpyrrolidin-1-yl]-2-[6-(4-ethyl-4H-1,2,4-triazol-3-yl)pyridin-2-yl]-4-[(methylamino)methyl]-2,3-dihydro-1H-pyrrolo[3,4-c]pyridin-1-one]
0.04 nM	22 nM	CC(C)n1cnnc1-c1cccc(N2Cc3c(cc(N4CCC[C@H]4C)nc3CN)C2=O)n1 [Example 107, 4-(aminomethyl)-6-[(2R)-2-methylpyrrolidin-1-yl]-2-{6-[4-(propan-2-yl)-4H-1,2,4-triazol-3-yl]pyridin-2-yl}-2,3-dihydro-1H-pyrrolo[3,4-c]pyridin-1-one]
0.06 nM	12 nM	CNCc1nc(N2CCCC2(C)C)cc2c1CN(c1cccc(-c3nncn3C(C)C)n1)C2=O [Example 109, 6-(2,2-dimethylpyrrolidin-1-yl)-4-[(methylamino)methyl]-2-{6-[4-(propan-2-yl)-4H-1,2,4-triazol-3-yl]pyridin-2-yl}-2,3-dihydro-1H-pyrrolo[3,4-c]pyridin-1-one]
